This note sets out measurements from article PMC9965906, “Discovery and Development Strategies for SARS-CoV-2 NSP3 Macrodomain Inhibitors” (Pathogens, 2023).

A word on the IC50: it is the concentration needed to halve the response being measured.

This experiment addresses SARS-CoV-2 NSP3 Mac1 (Severe acute respiratory syndrome coronavirus 2, UniProt P0DTD1). The experiment is described as follows: biochemical. Format: binding. The settings on record: for inhibition at 125 µM / IC50 in µM / IC50 / Inhibition at top concentration of 125 µM (%): MIDAS hit compounds and analogues; for inhibition at 125 µM: read-out: Inhibition at top concentration of 125 µM (%); for IC50 in µM / IC50: top concentration 125 µM, 8-point 1:1 dilution, duplicate; for IC50: read-out: IC50.

The structures appear in SMILES notation. Values joined by “and” are separate entries in the source; they are usually repeats but may differ in a detail not shown here. Equal entries are not always repeated.

Turning to `COc1ccc(NC(=O)c2cc(-c3ccc(C)cc3)nc3onc(C)c23)cc1` [IAL-MD0037, COC=1C=CC(NC(=O)C=2C=C(N=C3ON=C(C)C23)C=4C=CC(C)=CC4)=CC1], the inhibition at 125 µM was 9.3% and the “IC50 in µM” value was “Not measurable”.

For the compound `CCn1ncc2c(C(=O)Nc3cc(Cl)ccc3OC)cc(-c3cccs3)nc21` [IAL-MD0038, CCN1N=CC=2C(=CC(=NC12)C3=CC=CS3)C(=O)NC=4C=C(Cl)C=CC4OC], the inhibition at 125 µM stood at 50.5% and the “IC50 in µM” value is recorded as “Not measurable”.

With `CCn1ncc2c(C(=O)N3CCNC(=O)C3)cc(-c3cccs3)nc21` [IAL-MD0040, CCN1N=CC=2C(=CC(=NC12)C3=CC=CS3)C(=O)N4CCNC(=O)C4], the inhibition at 125 µM was determined as 81%; the IC50 was 21 µM and 20.6 µM. This compound returned an inhibition at 25 µM (MIDAS compound library primary screen, 25 µM) of 51%.

Take `CCn1ncc2c(C(=O)N(C)Cc3ccccc3C)cc(-c3cccs3)nc21` [IAL-MD0042, CCN1N=CC=2C(=CC(=NC12)C3=CC=CS3)C(=O)N(C)CC=4C=CC=CC4C]: the inhibition at 125 µM amounted to 20.9% and the “IC50 in µM” value is listed as “Not measurable”.

As for `CC(C)n1ncc2c(C(=O)N3CCNC(=O)C3)cc(-c3ccc4c(c3)OCCO4)nc21` [IAL-MD0044, CC(C)N1N=CC=2C(=CC(=NC12)C=3C=CC=4OCCOC4C3)C(=O)N5CCNC(=O)C5], the inhibition at 125 µM was 30.2% and the “IC50 in µM” value is “Not measurable”.

For the compound `Cc1nn(C)c2nc(-c3ccccc3)cc(C(=O)N3CCN(C(=O)C4CC4)CC3)c12` [IAL-MD0045, CC1=NN(C)C=2N=C(C=C(C(=O)N3CCN(CC3)C(=O)C4CC4)C12)C=5C=CC=CC5], the inhibition at 125 µM worked out at 47.5% and the “IC50 in µM” value was “Not measurable”.

Regarding `Cc1nn(C)c2nc(-c3cccs3)cc(C(=O)NCc3ccccn3)c12` [IAL-MD0048, CC1=NN(C)C=2N=C(C=C(C(=O)NCC=3C=CC=CN3)C12)C4=CC=CS4], the inhibition at 125 µM amounted to 15.8% and the “IC50 in µM” value is recorded as “Not measurable”.

For `CC(C)n1ncc2c(C(=O)N3CC(=O)Nc4ccccc43)cc(-c3cccs3)nc21` [IAL-MD0049, CC(C)N1N=CC=2C(=CC(=NC12)C3=CC=CS3)C(=O)N4CC(=O)NC=5C=CC=CC45], the inhibition at 125 µM was found to be 14.3% and the “IC50 in µM” value is recorded as “Not measurable”.

Regarding `CCn1ncc2c(C(=O)N3CCOCC3)cc(-c3ccccc3)nc21` [IAL-MD0050, CCN1N=CC=2C(=CC(=NC12)C=3C=CC=CC3)C(=O)N4CCOCC4], the “Inhibition at top concentration of 125 µM (%)” value (“Inhibition … (%)” below) was “Not measurable” and the “IC50 in µM” value is on record as “Not measurable”.

As to `Cc1ccc(-c2cc(C(=O)N3CCOCC3)c3cnn(C(C)C)c3n2)s1` [IAL-MD0051, CC(C)N1N=CC=2C(=CC(=NC12)C3=CC=C(C)S3)C(=O)N4CCOCC4], the inhibition at 125 µM amounted to 59.8% and the IC50 was determined as 12.6 µM. The “assay effects in dose-response titration” value (MIDAS hits and analogues, higher compound concentrations) is given as “secondary assay effects at higher concentrations”.

Regarding `CC(=O)N1CCN(C(=O)c2cc(-c3cccs3)nc3c2c(C)nn3C)CC1` [IAL-MD0054, CC(=O)N1CCN(CC1)C(=O)C=2C=C(N=C3N(C)N=C(C)C23)C4=CC=CS4], the inhibition at 125 µM is 41.5% and the “IC50 in µM” value was “Not measurable”.

In the case of `CC(C)n1ncc2c(C(=O)Nc3ccncc3)cc(-c3cccs3)nc21` [IAL-MD0055, CC(C)N1N=CC=2C(=CC(=NC12)C3=CC=CS3)C(=O)NC=4C=CN=CC4], the inhibition at 125 µM was found to be 19.4% and the “IC50 in µM” value is listed as “Not measurable”.

Consider `CCn1ncc2c(C(=O)N3CCC(C(O)c4ccccc4)CC3)cc(-c3cccs3)nc21` (stereo not drawn) [IAL-MD0056, CCN1N=CC=2C(=CC(=NC12)C3=CC=CS3)C(=O)N4CCC(CC4)C(O)C=5C=CC=CC5], for which the inhibition at 125 µM is 7% and the “IC50 in µM” value is recorded as “Not measurable”.

For the compound `COc1ccc(-c2cc(C(=O)Nc3ccc(S(C)(=O)=O)cc3)c3ccccc3n2)cc1` [IAL-MD0058, COC=1C=CC(=CC1)C=2C=C(C(=O)NC=3C=CC(=CC3)S(=O)(=O)C)C=4C=CC=CC4N2], the inhibition at 125 µM is 18.7% and the “IC50 in µM” value is recorded as “Not measurable”.

In the case of `CC(=O)Nc1ccc(C=Cc2cc(C(=O)O)c3cc(C)ccc3n2)cc1` [IAL-MD0059, CC(=O)NC=1C=CC(C=CC=2C=C(C(=O)O)C=3C=C(C)C=CC3N2)=CC1], the inhibition at 125 µM was found to be 63% and the IC50 stood at 22.8 µM.

Consider `CC(C)n1ncc2c(C(=O)N3CCc4ccccc4C3)cc(-c3cccs3)nc21` [IAL-MD0060, CC(C)N1N=CC=2C(=CC(=NC12)C3=CC=CS3)C(=O)N4CCC=5C=CC=CC5C4], for which the inhibition at 125 µM was 1.9% and the “IC50 in µM” value was “Not measurable”.

For the compound `CCn1ncc2c(C(=O)Nc3cccc(-c4nnco4)c3)cc(-c3cccs3)nc21` [IAL-MD0061, CCN1N=CC=2C(=CC(=NC12)C3=CC=CS3)C(=O)NC=4C=CC=C(C4)C5=NN=CO5], the inhibition at 125 µM came out at 7% and the “IC50 in µM” value is “Not measurable”.

For `CCn1ncc2c(C(=O)N(C)CC(=O)NCc3ccco3)cc(-c3cccs3)nc21` [IAL-MD0062, CCN1N=CC=2C(=CC(=NC12)C3=CC=CS3)C(=O)N(C)CC(=O)NCC4=CC=CO4], the inhibition at 125 µM was 42.2% and the “IC50 in µM” value is “Not measurable”.

Turning to `CC(C)n1ncc2c(C(=O)N3CCNC(=O)C3)cc(-c3cccs3)nc21` [IAL-MD0064, CC(C)N1N=CC=2C(=CC(=NC12)C3=CC=CS3)C(=O)N4CCNC(=O)C4], the inhibition at 125 µM came to 78.7%; the IC50 is 25 µM and 25.2 µM.

Take `CC(C)n1ncc2c(C(=O)N(C)Cc3ccc4c(c3)OCO4)cc(-c3cccs3)nc21` [IAL-MD0065, CC(C)N1N=CC=2C(=CC(=NC12)C3=CC=CS3)C(=O)N(C)CC=4C=CC=5OCOC5C4]: the inhibition at 125 µM worked out at 9.5% and the “IC50 in µM” value is “Not measurable”.

Consider `CCn1ncc2c(C(=O)N3CCCC3c3ccc(OC)cc3)cc(-c3cccs3)nc21` (stereo not drawn) [IAL-MD0066, CCN1N=CC=2C(=CC(=NC12)C3=CC=CS3)C(=O)N4CCCC4C=5C=CC(OC)=CC5], for which the inhibition at 125 µM came out at 13.5% and the “IC50 in µM” value was “Not measurable”.

On to `CCn1ncc2c(C(=O)N3CCN(C(=O)c4ccccc4)CC3)cc(-c3ccccc3)nc21` [IAL-MD0069, CCN1N=CC=2C(=CC(=NC12)C=3C=CC=CC3)C(=O)N4CCN(CC4)C(=O)C=5C=CC=CC5], for which the “Inhibition … (%)” value was “Not measurable” and the “IC50 in µM” value is listed as “Not measurable”.

Consider `CC(C)n1ncc2c(C(=O)N3CCNC(=O)C3)cc(-c3ccco3)nc21` [IAL-MD0070, CC(C)N1N=CC=2C(=CC(=NC12)C3=CC=CO3)C(=O)N4CCNC(=O)C4], for which the inhibition at 125 µM turned out to be 83.2% and the IC50 was found to be 16.3 µM.

Turning to `CCn1ncc2c(C(=O)N(Cc3ccccn3)C(C)C)cc(-c3cccs3)nc21` [IAL-MD0071, CCN1N=CC=2C(=CC(=NC12)C3=CC=CS3)C(=O)N(CC=4C=CC=CN4)C(C)C], the inhibition at 125 µM came out at 36.8% and the “IC50 in µM” value is “Not measurable”.

Consider `CC1c2cccn2CCN1C(=O)c1cc(-c2cccs2)nc2c1cnn2C(C)C` (stereo not drawn) [IAL-MD0072, CC(C)N1N=CC=2C(=CC(=NC12)C3=CC=CS3)C(=O)N4CCN5C=CC=C5C4C], for which the inhibition at 125 µM was found to be 9.8% and the “IC50 in µM” value is listed as “Not measurable”.

Consider `Cc1cc(CN(C)C(=O)c2cc(-c3cccs3)nc3c2cnn3C(C)C)no1` [IAL-MD0073, CC(C)N1N=CC=2C(=CC(=NC12)C3=CC=CS3)C(=O)N(C)CC=4C=C(C)ON4], for which the inhibition at 125 µM stood at 47% and the “IC50 in µM” value was “Not measurable”.

`CCn1ncc2c(C(=O)NCC(=O)N(C)C)cc(-c3cccs3)nc21` [IAL-MD0074, CCN1N=CC=2C(=CC(=NC12)C3=CC=CS3)C(=O)NCC(=O)N(C)C]: the inhibition at 125 µM is 77.7% and the IC50 is 25.3 µM.

As for `CC(C)n1ncc2c(C(=O)N3CCNC(=O)C3(C)C)cc(-c3cccs3)nc21` [IAL-MD0075, CC(C)N1N=CC=2C(=CC(=NC12)C3=CC=CS3)C(=O)N4CCNC(=O)C4(C)C], the inhibition at 125 µM was 30.9% and the “IC50 in µM” value is on record as “Not measurable”.

Turning to `CC(=O)Nc1cccc(C(=O)N2CCC(c3c[nH]c4ncccc34)CC2)c1` [IAL-MD0078, CC(=O)NC=1C=CC=C(C1)C(=O)N2CCC(CC2)C3=CNC=4N=CC=CC34], the inhibition at 125 µM was found to be 10.5% and the “IC50 in µM” value is “Not measurable”.

Take `COc1ccc(-c2cc(C(=O)Nc3nnc[nH]3)c3ccccc3n2)cc1` [IAL-MD0079, COC=1C=CC(=CC1)C=2C=C(C(=O)NC3=NN=CN3)C=4C=CC=CC4N2]: the inhibition at 125 µM worked out at 16.3% and the “IC50 in µM” value is given as “Not measurable”.

With `CC(C)n1ncc2c(C(=O)N3CCCCC3C(=O)N3CCCC3)cc(-c3cccs3)nc21` (stereo not drawn) [IAL-MD0080, CC(C)N1N=CC=2C(=CC(=NC12)C3=CC=CS3)C(=O)N4CCCCC4C(=O)N5CCCC5], the inhibition at 125 µM worked out at 45.9% and the “IC50 in µM” value is on record as “Not measurable”.

Regarding `CNC(=O)CN(C)C(=O)c1cc(-c2cccs2)nc2c1c(C)nn2C` [IAL-MD0081, CNC(=O)CN(C)C(=O)C=1C=C(N=C2N(C)N=C(C)C12)C3=CC=CS3], the inhibition at 125 µM is 53% and the “IC50 in µM” value is recorded as “Not measurable”.

For `CC(=O)N1CCN(C(=O)c2cc(-c3ccccc3)nc3c2cnn3C(C)C)CC1` [IAL-MD0082, CC(C)N1N=CC=2C(=CC(=NC12)C=3C=CC=CC3)C(=O)N4CCN(CC4)C(=O)C], the “Inhibition … (%)” value was “Not measurable” and the “IC50 in µM” value was “Not measurable”.

As for `CC(C)n1ncc2c(C(=O)N3CCCC3)cc(-c3cccs3)nc21` [IAL-MD0083, CC(C)N1N=CC=2C(=CC(=NC12)C3=CC=CS3)C(=O)N4CCCC4], the inhibition at 125 µM was found to be 47.4% and the “IC50 in µM” value is listed as “Not measurable”.

For the compound `COc1ncccc1C(=O)N1CCC(c2c[nH]c3ncccc23)CC1` [IAL-MD0084, COC=1N=CC=CC1C(=O)N2CCC(CC2)C3=CNC=4N=CC=CC34], the inhibition at 125 µM is 13.2% and the “IC50 in µM” value is given as “Not measurable”.
